US20150105252A1, “SUBSTITUTED PYRAZOLES AS HERBICIDES” (E I DU PONT DE NEMOURS AND COMPANY, priority 2013, published 2015)

How the values were obtained:
morningglory [1] = experiment: Test A preemergence; type: in vivo, Ipomoea spp.; details: Preemergence, 1000 g ai/ha; 0 to 100 scale, 0 no effect, 100 complete control
Procedure, shortened: (§1)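 Injury readout: eye-scored versus untreated controls, 0 to 100. Exposure period: ~10 days, greenhouse. Application: soil-directed spray over sown seed (pre) or spray on seedlings 2–10 cm tall with one or two leaves (post), compound carried in non-phytotoxic solvent including surfactant.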

velvetleaf [2] = experiment: Test A postemergence; type: in vivo, Abutilon theophrasti; details: Postemergence, 1000 g ai/ha; visual rating after approx. 10 days, 0 to 100 scale (0 no effect, 100 complete control)
Procedure, shortened: as §1

rice = experiment: Test C flooded paddy test; type: in vivo, Oryza sativa; details: Flood
Excerpt: (§2) At time of treatment, test pots were flooded to 3 cm above the soil surface, treated by application of test compounds directly to the paddy water, and then maintained at that water depth for the duration of the test. Treated plants and controls were maintained in a greenhouse for 13 to 15 days, after which time all species were compared to controls and visually evaluated. […] A dash (-) response means no test result.

crabgrass, large [3] = experiment: Test A postemergence; type: in vivo, Digitaria sanguinalis; details: Postemergence, 1000 g ai/ha; visual rating after approx. 10 days, 0 to 100 scale (0 no effect, 100 complete control)
Procedure, shortened: as §1

foxtail, giant [4] = experiment: Test A preemergence; type: in vivo, Setaria faberii; details: Preemergence, 1000 g ai/ha; 0 to 100 scale, 0 no effect, 100 complete control
Procedure, shortened: as §1

corn [5] = experiment: Test A preemergence; type: in vivo, Zea mays; details: Preemergence, 1000 g ai/ha; 0 to 100 scale, 0 no effect, 100 complete control
Procedure, shortened: as §1

corn [6] = experiment: Test A postemergence; type: in vivo, Zea mays; details: Postemergence, 1000 g ai/ha; visual rating after approx. 10 days, 0 to 100 scale (0 no effect, 100 complete control)
Procedure, shortened: as §1

ducksalad = experiment: Test C flooded paddy test; type: in vivo, Heteranthera limosa; details: Flood
Excerpt: as §2

wheat [7] = experiment: Test A postemergence; type: in vivo, Triticum aestivum; details: Postemergence, 1000 g ai/ha; visual rating after approx. 10 days, 0 to 100 scale (0 no effect, 100 complete control)
Procedure, shortened: as §1

barnyardgrass [8] = experiment: Test C flooded paddy test; type: in vivo, Echinochloa crus-galli; details: Flood
Procedure, shortened: (§3)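 Ratings were visual and made relative to untreated controls after 13 to 15 greenhouse days.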

crabgrass, large [9] = experiment: Test A preemergence; type: in vivo, Digitaria sanguinalis; details: Preemergence, 1000 g ai/ha; 0 to 100 scale, 0 no effect, 100 complete control
Procedure, shortened: as §1

pigweed [10] = experiment: Test A preemergence; type: in vivo, Amaranthus retroflexus; details: Preemergence, 1000 g ai/ha; 0 to 100 scale, 0 no effect, 100 complete control
Procedure, shortened: as §1

sedge, umbrella = experiment: Test C flooded paddy test; type: in vivo, Cyperus difformis; details: Flood
Procedure, shortened: as §3

velvetleaf [11] = experiment: Test A preemergence; type: in vivo, Abutilon theophrasti; details: Preemergence, 1000 g ai/ha; 0 to 100 scale, 0 no effect, 100 complete control
Procedure, shortened: as §1

pigweed [12] = experiment: Test A postemergence; type: in vivo, Amaranthus retroflexus; details: Postemergence, 1000 g ai/ha; visual rating after approx. 10 days, 0 to 100 scale (0 no effect, 100 complete control)
Procedure, shortened: as §1

morningglory [13] = experiment: Test A postemergence; type: in vivo, Ipomoea spp.; details: Postemergence, 1000 g ai/ha; visual rating after approx. 10 days, 0 to 100 scale (0 no effect, 100 complete control)
Procedure, shortened: as §1

wheat [14] = experiment: Test A preemergence; type: in vivo, Triticum aestivum; details: Preemergence, 1000 g ai/ha; 0 to 100 scale, 0 no effect, 100 complete control
Procedure, shortened: as §1

barnyardgrass [15] = experiment: Test A preemergence; type: in vivo, Echinochloa crus-galli; details: Preemergence, 1000 g ai/ha; 0 to 100 scale, 0 no effect, 100 complete control
Procedure, shortened: as §1

foxtail, giant [16] = experiment: Test A postemergence; type: in vivo, Setaria faberii; details: Postemergence, 1000 g ai/ha; visual rating after approx. 10 days, 0 to 100 scale (0 no effect, 100 complete control)
Procedure, shortened: as §1

barnyardgrass [17] = experiment: Test A postemergence; type: in vivo, Echinochloa crus-galli; details: Postemergence, 1000 g ai/ha; visual rating after approx. 10 days, 0 to 100 scale (0 no effect, 100 complete control)
Procedure, shortened: as §1

[18] = 31 g ai/ha, scale 0 to 100 (0 no effect, 100 complete control)
[19] = 62 g ai/ha, scale 0 to 100 (0 no effect, 100 complete control)

Compound	Morningglory plant response rating (morningglory [1])	Velvetleaf plant response rating (velvetleaf [2])	Plant response rating, Rice (rice; [18])	Plant response rating, Rice (rice; [19])	Plant response rating, Rice (rice; 125 g ai/ha, scale 0 to 100)	Plant response rating, Rice (rice; 250 g ai/ha, scale 0 to 100)	Crabgrass, Large plant response rating (crabgrass, large [3])	Foxtail, Giant plant response rating (foxtail, giant [4])	Corn plant response rating (corn [5])	Corn plant response rating (corn [6])	Plant response rating, Ducksalad (ducksalad; [18])	Plant response rating, Ducksalad (ducksalad; [19])	Plant response rating, Ducksalad (ducksalad; 125 g ai/ha, scale 0 to 100)	Plant response rating, Ducksalad (ducksalad; 250 g ai/ha, scale 0 to 100)	Wheat plant response rating (wheat [7])	Plant response rating, Barnyardgrass (barnyardgrass [8]; [18])	Plant response rating, Barnyardgrass (barnyardgrass [8]; [19])	Plant response rating, Barnyardgrass (barnyardgrass [8]; 125 g ai/ha, scale 0 to 100)	Plant response rating, Barnyardgrass (barnyardgrass [8]; 250 g ai/ha, scale 0 to 100)	Crabgrass, Large plant response rating (crabgrass, large [9])	other results
CCCc1cc(C(=O)NCC)nn1Cc1cccc(OC(F)(F)F)c1 [Compound 33]	40	80	0	0	0	0	80	90	0	20	0	10	20	80	20	0	0	0	0	100	Pigweed plant response rating (pigweed [10]): 90; Plant response rating, Sedge, Umbrella (sedge, umbrella; [18]): 10; Plant response rating, Sedge, Umbrella (sedge, umbrella; [19]): 30; Plant response rating, Sedge, Umbrella (sedge, umbrella; 125 g ai/ha, scale 0 to 100): 30; Plant response rating, Sedge, Umbrella (sedge, umbrella; 250 g ai/ha, scale 0 to 100): 85; Velvetleaf plant response rating (velvetleaf [11]): 40; Pigweed plant response rating (pigweed [12]): 80; Morningglory plant response rating (morningglory [13]): 100; Wheat plant response rating (wheat [14]): 10; Barnyardgrass plant response rating (barnyardgrass [15]): 40; Foxtail, Giant plant response rating (foxtail, giant [16]): 70; Barnyardgrass plant response rating (barnyardgrass [17]): 30
CCCc1cc(C(=O)NC2CC2)nn1Cc1cccc(OC(F)(F)F)c1 [Compound 34]	60	100	0	0	0	10	90	100	10	40	0	10	30	80	30	0	0	0	20	100	Pigweed plant response rating (pigweed [10]): 80; Plant response rating, Sedge, Umbrella (sedge, umbrella; [18]): 0; Plant response rating, Sedge, Umbrella (sedge, umbrella; [19]): 10; Plant response rating, Sedge, Umbrella (sedge, umbrella; 125 g ai/ha, scale 0 to 100): 70; Plant response rating, Sedge, Umbrella (sedge, umbrella; 250 g ai/ha, scale 0 to 100): 80; Velvetleaf plant response rating (velvetleaf [11]): 30; Pigweed plant response rating (pigweed [12]): 100; Morningglory plant response rating (morningglory [13]): 100; Wheat plant response rating (wheat [14]): 20; Barnyardgrass plant response rating (barnyardgrass [15]): 60; Foxtail, Giant plant response rating (foxtail, giant [16]): 90; Barnyardgrass plant response rating (barnyardgrass [17]): 50
CCCNC(=O)c1cc(CCC)n(Cc2cccc(OC(F)(F)F)c2)n1 [Compound 35]	50	100	0	0	0	0	70	100	0	20	0	20	20	60	20	0	0	10	10	100	Pigweed plant response rating (pigweed [10]): 90; Plant response rating, Sedge, Umbrella (sedge, umbrella; [18]): 20; Plant response rating, Sedge, Umbrella (sedge, umbrella; [19]): 30; Plant response rating, Sedge, Umbrella (sedge, umbrella; 125 g ai/ha, scale 0 to 100): 50; Plant response rating, Sedge, Umbrella (sedge, umbrella; 250 g ai/ha, scale 0 to 100): 80; Velvetleaf plant response rating (velvetleaf [11]): 50; Pigweed plant response rating (pigweed [12]): 90; Morningglory plant response rating (morningglory [13]): 100; Wheat plant response rating (wheat [14]): 0; Barnyardgrass plant response rating (barnyardgrass [15]): 70; Foxtail, Giant plant response rating (foxtail, giant [16]): 40; Barnyardgrass plant response rating (barnyardgrass [17]): 30
CCc1cc(C(=O)NCC2CC2)nn1Cc1cccc(OC(F)(F)F)c1 [Compound 53]	40	80	0	0	10	30	50	90	10	40	0	0	0	40	30	0	0	0	15	100	Pigweed plant response rating (pigweed [10]): 100; Plant response rating, Sedge, Umbrella (sedge, umbrella; [18]): 0; Plant response rating, Sedge, Umbrella (sedge, umbrella; [19]): 0; Plant response rating, Sedge, Umbrella (sedge, umbrella; 125 g ai/ha, scale 0 to 100): 0; Plant response rating, Sedge, Umbrella (sedge, umbrella; 250 g ai/ha, scale 0 to 100): 80; Velvetleaf plant response rating (velvetleaf [11]): 30; Pigweed plant response rating (pigweed [12]): 80; Morningglory plant response rating (morningglory [13]): 90; Wheat plant response rating (wheat [14]): 0; Barnyardgrass plant response rating (barnyardgrass [15]): 40; Foxtail, Giant plant response rating (foxtail, giant [16]): 50; Barnyardgrass plant response rating (barnyardgrass [17]): 40
